# According to patent US20230338454A1, “FORSYTHIA SUSPENSA COMPONENT AND OPTIONAL PANAX GINSENG COMPONENT AND THE APPLICATION” (priority 2020, published 2023):
# Read-outs that look alike come from different tables or passages of the source.
# Experiments:
# Influenza virus [1] = assay: Effect of drugs on viral cytopathic effect, effective antiviral rate (ER%); assay type: cell-based
# Parainfluenza virus = assay: as above; assay type: cell-based; settings: Vero cells, 100TCID50, drug at maximum non-toxic concentration, 72 h, MTT
# [2] = test system: Coxsackievirus A16 (CoxA16); assay: as above; assay type: cell-based; settings: Vero cells, 100TCID50, drug at maximum non-toxic concentration, 72 h, MTT
# [3] = test system: respiratory syncytial virus (RSV); assay: as above; assay type: cell-based; settings: Vero cells, 100TCID50, drug at maximum non-toxic concentration, 72 h, MTT
# Adenovirus (AdV) = assay: as above; assay type: cell-based; settings: Vero cells, 100TCID50, drug at maximum non-toxic concentration, 72 h, MTT
# enterovirus 71 (EV71) = assay: as above; assay type: cell-based; settings: Vero cells, 100TCID50, drug at maximum non-toxic concentration, 72 h, MTT
# influenza virus [4] = assay type: in vivo, Kunming mice; settings: for Lung index (x̅ ±S) / Lung index Inhibitory rate (%): 13.0 mg/kg/day by gavage, 5 days
# influenza virus [5] = assay type: in vivo, Kunming mice; settings: 13.0 mg/kg/day by gavage, 5 days
# [6] = test system: epithelial cells of plantar sweat glands of rats; assay: Sweat secretion of rat paw (histomorphology observation method); assay type: in vivo, Wistar rats; settings: 1 h after gavage, dose not given
# Description: After sweat glands activation in rats, besides the increase of sweat secretion, the morphology of the epithelial cells of the sweat glands changes accordingly. Under the optical microscope, the increase and enlargement of vacuoles in the epithelial cells of the sweat glands are observed. Under an electron microscope, the enlarged vacuoles appear to be due to swelling and rupture of mitochondria, enlargement of fusion and secretory vesicles in the epithelial cells of sweat glands. The secretory activity of sweat glands could be understood by observing the histomorphology of the epithelial cells of plantar sweat glands of rats. Three hundred Wistar rats, half male and half female, weighing 120-160 g. were taken in the study. […] Except for the pilocarpine solution given by subcutaneous injection, other groups were administered by gavage. One hour after the control group was given 0.5% carboxymethyl cellulose, 30 min after the positive drug group was given pilocarpine, and 1 h after the administration of forsythin, ginsenoside Rg3 and the panax ginseng-forsythia suspensa composition, the right hind limb was immediately cut off at the level of the ankle joint. […] Observations were made under an optical microscope for changes in the epithelial cells of the plantar sweat glands of rats in each group, mainly the incidence of vacuoles. The statistical processing was performed by X^2 test, and differences among the groups were compared. The above study was repeated for 3 times.
# [7] = test system: fever induced by beer yeast; assay: Fever induced by beer yeast in rats; assay type: in vivo, Wistar rats; settings: 10 mg/kg; for Body temperature change (%) (antipyretic percentage), time post-dose 1 h / Body temperature, time post-dose 1 h: 1 h post-dose; for Body temperature change (%) (antipyretic percentage), time post-dose 2 h / Body temperature, time post-dose 2 h: 2 h post-dose; for Body temperature change (%) (antipyretic percentage), time post-dose 3 h / Body temperature, time post-dose 3 h: 3 h post-dose; for Body temperature change (%) (antipyretic percentage), time post-dose 4 h / Body temperature, time post-dose 4 h: 4 h post-dose
# [8] = test system: carrageenan-induced paw swelling; assay: Carrageenan-induced paw swelling in rats; assay type: in vivo, Wistar rats; settings: sublingual intravenous injection; for Swelling rate (%) 15 min: 15 min after inflammation induction; for Swelling rate (%) 30 min: 30 min after inflammation induction; for Swelling rate (%) 60 min: 60 min after inflammation induction; for Swelling rate (%) 120 min: 120 min after inflammation induction; for Swelling rate (%) 180 min: 180 min after inflammation induction; for Swelling rate (%) 240 min: 240 min after inflammation induction; for Swelling rate (%) 300 min: 300 min after inflammation induction; for Swelling rate (%) 360 min: 360 min after inflammation induction
# Experimental: Each group was administered by sublingual intravenous injection. Before the study, the normal volume of the right hind limb was measured by the capillary magnification method. To avoid errors, the measurement position should be fixed and performed by one person before and after administration. The average of the two measurements was taken as the normal volume of the right hind limb of the rats prior to administration. […] The inter-group t-test was performed by the difference percentage (swelling rate) of the plantar volume before and after the inflammation induction, and the differences among the groups were compared.
# [9] = test system: mouse splenic lymphocytes; assay: ConA-induced mouse splenic lymphocyte transformation test; assay type: in vivo, Kunming mice; settings: 144 mg/kg; gavage once daily for 30 days; mice; ABSa-ABSb at 570 nm
# Experimental: One hundred and fifty-two healthy male mice were subjected to acclimation for 4 days before they were randomly divided into 19 groups: the negative control group, positive control group, forsythin group, 20(R)-ginsenoside Rg3 group, high, middle and low dose groups of panax ginseng-forsythia suspensa composition. […] The drugs were given by gavage, once daily for 30 days, and the negative control group was given the same volume of water. At 1 h after the last dose, the spleens of animals of each group were aseptically excised to prepare splenocyte suspension. After diluting the splenocyte suspension to a concentration of 3×10^6 cells/mL, the splenocyte suspension was divided into 2 aliquots.Each of the aliquot was transferred into two 24-well culture plates at a volume of 1 mL/well followed by addition of 75 µL of ConA solution (a) was added to one well, and the other well was used as control (b). The wells were cultured at 37° C. for 72 h. Then, thiazolyl blue (MTT) was added 4 h before the end of the culture. After incubation, acidic isopropanol was added, and the absorbance (ABS) of each solution was measured at 570 nm after it was mixed well. The proliferativity was calculated using the formula: proliferativity = ABSa-ABSb. Each dose group of the test sample was compared with the negative control group.
# [10] = test system: NK cells (YAC-1 target cells); assay: Determination of NK cell viability; assay type: in vivo, Kunming mice; settings: 144 mg/kg; gavage once daily for 30 days; mice
# Description: One hundred and fifty-two healthy male mice were subjected to acclimation for 4 days before they were randomly divided into 19 groups: the negative control group, positive control group, forsythin group, 20(R)-ginsenoside Rg3 group, high, middle and low dose groups of panax ginseng-forsythia suspensa composition. […] The drugs were given by gavage, once daily for 30 days, and the negative control group was given the same volume of water. One hour after the last dose, the spleens of animals of each group were aseptically excised to prepare splenocyte suspension. […] Then, the concentration of splenocyte suspension was adjusted to 2×10^7 cells/mL. and the splenocyte suspension was added into a 96-well plate for culturing. […] A triplicate set of tubes was prepared for each of the above items. The 96-well plate was incubated at 37° C. in a 5% CO2 incubator for 4 h. After adding LDH matrix solution and 1 moL/L HCl, the solutions in each parallel well were combined, and the absorbance (ABS) was measured at 490 nm. The NK cell viability was calculated: NK cell viability (%) = (ABS reaction well -ABS natural release well)/(ABS maximum release well -ABS natural release well).
# Vero cells = assay: Cytotoxicity test of drugs on Vero cells (MTT); settings: 72 h
# [11] = mice infected with influenza virus
# [12] = lung suspension, mice infected with influenza virus
structure (smiles),measurement,setting,value
"CC(C)=CCC[C@](C)(O)[C@H]1CC[C@]2(C)[C@@H]1[C@H](O)C[C@@H]1[C@@]3(C)CC[C@H](O[C@@H]4O[C@H](CO)[C@@H](O)[C@H](O)[C@H]4O[C@@H]4O[C@H](CO)[C@@H](O)[C@H](O)[C@H]4O)C(C)(C)[C@@H]3CC[C@]12C [20(R)-Ginsenoside Rg3, 20(R)-ginsenoside Rg3]",Effective Antiviral Rates (ER%) Influenza virus,Influenza virus [1],74.06^∗∗ %
same,Effective Antiviral Rates (ER%) Parainfluenza virus,Parainfluenza virus,82.21^∗∗ %
same,Effective Antiviral Rates (ER%) CoxA16,[2],52.33%
same,Effective Antiviral Rates (ER%) RSV,[3],79.42^∗∗ %
same,Effective Antiviral Rates (ER%) ADV,Adenovirus (AdV),51.07%
same,Effective Antiviral Rates (ER%) EV71,enterovirus 71 (EV71),74.66^∗∗ %
same,Lung index (x̅ ±S),influenza virus [4]; […],1.302±0.046
same,Lung index Inhibitory rate (%),influenza virus [4]; […],12.51%
same,"Lung index compared with the infection model group, in words","influenza virus [4]; mouse, in vivo",decreased significantly
same,Hemagglutinin titer (InX),influenza virus [5]; […],22.61±1.059
same,Inhibitory rate (%) of hemagglutination titer,influenza virus [5]; […],30.22%
same,Number of vacuolar sweat glands (number),[6],79 number
same,Vacuolation rate (%),[6],20.26^∗∗ %
same,"Body temperature change (%) (antipyretic percentage), time post-dose 1 h",[7],-0.3±0.41%
same,"Body temperature, time post-dose 1 h",[7],39.31±0.48 °C
same,"Body temperature change (%) (antipyretic percentage), time post-dose 2 h",[7],-0.69±0.93^∗ %
same,"Body temperature, time post-dose 2 h",[7],39.04±0.45 °C
same,"Body temperature change (%) (antipyretic percentage), time post-dose 3 h",[7],-1.03±1.18^∗ %
same,"Body temperature, time post-dose 3 h",[7],38.91±0.40 °C
same,"Body temperature change (%) (antipyretic percentage), time post-dose 4 h",[7],-1.55±1.23^∗ %
same,"Body temperature, time post-dose 4 h",[7],38.70±0.31 °C
same,Swelling rate (%) 15 min,[8]; 2.5 mg/kg,14.8±8.74%
same,Swelling rate (%) 30 min,[8]; 2.5 mg/kg,18.9±12.1%
same,Swelling rate (%) 60 min,[8]; 2.5 mg/kg,23.5±13.3^∗▲▲ %
same,Swelling rate (%) 120 min,[8]; 2.5 mg/kg,28.9±14.2^∗∗Δ▲ %
same,Swelling rate (%) 180 min,[8]; 2.5 mg/kg,31.8±14.8^∗∗Δ▲ %
same,Swelling rate (%) 240 min,[8]; 2.5 mg/kg,33.1±18.3^∗∗Δ▲ %
same,Swelling rate (%) 300 min,[8]; 2.5 mg/kg,34.9±19.6^∗∗Δ▲ %
same,Swelling rate (%) 360 min,[8]; 2.5 mg/kg,37.8±18.3^∗▲▲ %
same,Swelling rate (%) 15 min,[8]; 10.0 mg/kg,14.9±6.13%
same,Swelling rate (%) 30 min,[8]; 10.0 mg/kg,21.9±9.72%
same,Swelling rate (%) 60 min,[8]; 10.0 mg/kg,27.1±13.5%
same,Swelling rate (%) 120 min,[8]; 10.0 mg/kg,30.7±10.2^∗ %
same,Swelling rate (%) 180 min,[8]; 10.0 mg/kg,33.8±12.1^∗ %
same,Swelling rate (%) 240 min,[8]; 10.0 mg/kg,31.0±11.3^∗ %
same,Swelling rate (%) 300 min,[8]; 10.0 mg/kg,35.8±13.5^∗ %
same,Swelling rate (%) 360 min,[8]; 10.0 mg/kg,36.4±10.2%
same,Proliferation ability (×10^-2),[9],23.9±11.70 ×10^-2
same,NK cell viability (%),[10],37.34±7.21%
same,Half toxic concentration (TC50),Vero cells,310 µg/mL
same,Maximum non-toxic concentration (TC0),Vero cells,0.0048 g/L
COc1ccc([C@H]2OCC3C2CO[C@H]3c2ccc(O[C@@H]3OC(CO)[C@@H](O)[C@H](O)C3O)c(OC)c2)cc1OC (stereo partly shown) [Forsythin],Effective Antiviral Rates (ER%) Influenza virus,"Influenza virus [1]; Vero cells, 100TCID50, drug at maximum non-toxic concentration, 72 h, MTT",75.38^∗∗ %
same,Effective Antiviral Rates (ER%) Parainfluenza virus,Parainfluenza virus,84.96^∗∗ %
same,Effective Antiviral Rates (ER%) CoxA16,[2],75.08^∗∗ %
same,Effective Antiviral Rates (ER%) RSV,[3],80.40^∗∗ %
same,Effective Antiviral Rates (ER%) ADV,Adenovirus (AdV),75.14^∗∗ %
same,Effective Antiviral Rates (ER%) EV71,enterovirus 71 (EV71),84.85^∗∗ %
same,Lung index (x̅ ±S),influenza virus [4]; [11],1.280±0.040
same,Lung index Inhibitory rate (%),influenza virus [4]; [11],14.00%
same,Hemagglutinin titer (InX),influenza virus [5]; [12],22.06±1.120
same,Inhibitory rate (%) of hemagglutination titer,influenza virus [5]; [12],31.90%
same,Number of vacuolar sweat glands (number),[6],86 number
same,Vacuolation rate (%),[6],22.15^∗∗ %
same,"Body temperature change (%) (antipyretic percentage), time post-dose 1 h",[7],-0.60±0.39%
same,"Body temperature, time post-dose 1 h",[7],39.13±0.52 °C
same,"Body temperature change (%) (antipyretic percentage), time post-dose 2 h",[7],-0.92±0.93^∗∗ %
same,"Body temperature, time post-dose 2 h",[7],38.77±0.42 °C
same,"Body temperature change (%) (antipyretic percentage), time post-dose 3 h",[7],-1.29±1.18^∗ %
same,"Body temperature, time post-dose 3 h",[7],38.63±0.40 °C
same,"Body temperature change (%) (antipyretic percentage), time post-dose 4 h",[7],-1.70±1.23^∗ %
same,"Body temperature, time post-dose 4 h",[7],38.46±0.31 °C
same,Swelling rate (%) 15 min,[8]; 10.0 mg/kg,12.9±8.41%
same,Swelling rate (%) 30 min,[8]; 10.0 mg/kg,19.9±9.55%
same,Swelling rate (%) 60 min,[8]; 10.0 mg/kg,21.8±11.8 %
same,Swelling rate (%) 120 min,[8]; 10.0 mg/kg,28.9±14.0^∗ %
same,Swelling rate (%) 180 min,[8]; 10.0 mg/kg,30.8±15.4^∗ %
same,Swelling rate (%) 240 min,[8]; 10.0 mg/kg,29.9±11.1^∗ %
same,Swelling rate (%) 300 min,[8]; 10.0 mg/kg,33.5±10.0^∗ %
same,Swelling rate (%) 360 min,[8]; 10.0 mg/kg,32.2±11.9^∗ %
same,Proliferation ability (×10^-2),[9],28.66±12.63 ×10^-2
same,NK cell viability (%),[10],41.86±7.24%
same,Half toxic concentration (TC50),Vero cells,550 µg/mL
same,Maximum non-toxic concentration (TC0),Vero cells,0.0066 g/L
